As a reminder, the CC50 is the concentration that lowers cell viability or growth by half. As usually defined, the EC50 is the concentration giving half of the maximal effect.

Consider two compounds from publication PMC3758303 (PLoS ONE, 2013).

The target in data set [1] is T1, renilla luciferase (RL) activity (Renilla reniformis, UniProt P27652).
T1 construct: expressed in transfected cells; host or cells: OR6 (HuH-7-derived) and ORL8 (Li23-derived) cells harbouring genome-length HCV-RNA that encodes RL; cell lysate
Briefly: Direct effect on RL activity in cell lysate. The class given is biochemical. An excerpt: The genome-length HCV-RNA used in the assay systems described above contains three non-natural elements: RL, neomycin phosphotransferase, and an internal ribosomal entry site of encephalomyocarditis virus. To exclude the possibility that the anti-HCV activity of N-89 or N-251 was due to the inhibition of these three exogenous elements, we examined the anti-HCV activities of N-89 and N-251 using the authentic 9.6 kb HCV-RNA-replicating HCV-O/RLGE cells, which were developed by the introduction of in vitro synthesized HCV-O/RLGE RNA (Fig. 2A) into OR6c cured cells.
Supplementary file pone.0072519.s002.tif: Figure S2 No inhibition of RL activity by N-89 or N-251. […] N-89 or N-251 was added to the OR6 cell lysate, and then an RL assay was performed. […] N-89 or N-251 was added to the ORL8 cell lysate, and then an RL assay was performed. (TIF) Click here for additional data file.

A short description of data set [2]: WST-1 cell proliferation assay, OR6 cells. Format: cell-based. To be noted: human. The procedure:
(§1) The WST-1 cell proliferation assay was performed as described previously. Briefly, The cells were plated onto 96-well plates (1×10^3 cells per well) in triplicate and then treated with each reagent at several concentrations for 72 hrs. After treatment, the cells were subjected to the WST-1 cell proliferation assay (Takara Bio, Otsu, Japan) according to the manufacturer’s protocol. This assay is based on the enzymatic cleavage of the tetrazolium salt WST-1 to formazan by cellular mitochondrial dehydrogenases present in viable cells. Therefore, there are […] the value of the WST-1 assay becomes zero. The experiments were performed at least in triplicate. From the assay results, the 50% cytotoxic concentration (CC50) of each reagent was determined.
For orientation: Tetrazolium assays rely on reduction of a dye to a coloured formazan, in cell work by metabolically active cells.

Data set [3] deals with subgenomic HCV-JFH-1 replicon in RSc-JRN/35B cells. Briefly: RSc-JRN/35B RL assay. Format: cell-based, hepatitis C virus. The procedure: RSc and D7 cells were derived from the cell lines HuH-7 and Li23, respectively, were cultured as described previously, [29]. HuH-7-derived OR6 [13], AH1R [30], and 1B-4R [Ikeda et al., submitted] cells harboring genome-length HCV-RNA and HuH-7-derived polyclonal sOR [31], and RSc-JRN/35B [Ikeda et al., submitted] cells harboring an HCV subgenomic replicon were cultured with medium in the presence of G418 (0.3 mg/ml; Geneticin, Invitrogen, Carlsbad, CA) as described previously. Li23-derived ORL8 [20], ORL11 [20], 1B-4RL [Ikeda et al., submitted], and KAH5RL [Ikeda et al., submitted] cells harboring genome-length HCV-RNA were maintained with medium in the presence of G418 (0.3 mg/ml) as described previously. Li23-derived polyclonal sORL8 and sORL11 cells harboring an HCV replicon, which were established by the transfection of ORN/3-5B/QR,KE,SR RNA into the cured OL8 and OL11 cells, respectively, were also cultured with medium in the presence of G418 (0.3 mg/ml) as described previously. […]
We next examined whether N-89 and N-251 worked in an HCV production system using HCV-JFH-1 strain (genotype 2a). […] To clarify whether anti-HCV activity depends on the difference of genotype or assay model, we evaluated the activities of N-89 and N-251 using RSc-JRN/35B [Ikeda et al., submitted] cells harboring a subgenomic HCV-JFH-1 replicon as an additional assay.

Data set [4] deals with genome-length HCV-RNA (O strain of genotype 1b) replication in Li23-derived ORL11 cells. Briefly: ORL11 RL assay. Format: cell-based. To be noted: Hepatitis C virus, 72 hrs. As to the method: RSc and D7 cells were derived from the cell lines HuH-7 and Li23, respectively, were cultured as described previously, [29]. HuH-7-derived OR6 [13], AH1R [30], and 1B-4R [Ikeda et al., submitted] cells harboring genome-length HCV-RNA and HuH-7-derived polyclonal sOR [31], and RSc-JRN/35B [Ikeda et al., submitted] cells harboring an HCV subgenomic replicon were cultured with medium in the presence of G418 (0.3 mg/ml; Geneticin, Invitrogen, Carlsbad, CA) as described previously. Li23-derived ORL8 [20], ORL11 [20], 1B-4RL [Ikeda et al., submitted], and KAH5RL [Ikeda et al., submitted] cells harboring genome-length HCV-RNA were maintained with medium in the presence of G418 (0.3 mg/ml) as described previously. Li23-derived polyclonal sORL8 and sORL11 cells harboring an HCV replicon, which were established by the transfection of ORN/3-5B/QR,KE,SR RNA into the cured OL8 and OL11 cells, respectively, were also cultured with medium in the presence of G418 (0.3 mg/ml) as described previously. Cured cells, from which the HCV-RNA had been eliminated by IFN treatment, were also maintained with medium in the absence of G418 as described previously. […] Therefore, when HCV-RNA is excluded from the cells or when its level is decreased, the cells are killed in the presence of G418. […]
(§2) The SI value of each reagent was determined by dividing the CC50 value by the EC50 value.

Data set [5] relates to HCV-RNA replication in ORL8 cells. Description: Effect of VE on anti-HCV activity, ORL8 RL assay. The class given is cell-based, hepatitis C virus. Conditions: 72 hrs. As to the method:
After treatment, an RL assay of harvested ORL8 cell samples was performed. (B, D, and F) The ratio of RL activity in the presence of VE to the RL activity in the absence of VE. The above ratio was calculated from the data of (A, C, and E). […] (G) Western blot analysis was performed as described in Fig. 1B.
The ORL8 cells were treated with N-89 or IFN-α, and then RL assays were performed at 2 to 72 hrs after the treatment. The relative value (%) calculated at each time point, when the luciferase activity of non-treated cells at 24 hrs was assigned as 100%, is shown. Data are expressed as the means±standard deviation of triplicate assays. […] To evaluate this possibility, we examined the effect of VE on N-89 at the EC90 level in the ORL8 assay.

Data set [6] can be described thus: WST-1 cell proliferation assay, ORL11 cells. Format: cell-based. Conditions: human. As to the method: as §1
In data set [7] the test system is HCV subgenomic replicon RNA (O strain) replication in HuH-7-derived polyclonal sOR cells. Description: sOR RL assay. Format: cell-based, hepatitis C virus. To be noted: HuH-7, subgenomic replicon. As to the method:
RSc and D7 cells were derived from the cell lines HuH-7 and Li23, respectively, were cultured as described previously, [29]. HuH-7-derived OR6 [13], AH1R [30], and 1B-4R [Ikeda et al., submitted] cells harboring genome-length HCV-RNA and HuH-7-derived polyclonal sOR [31], and RSc-JRN/35B [Ikeda et al., submitted] cells harboring an HCV subgenomic replicon were cultured with medium in the presence of G418 (0.3 mg/ml; Geneticin, Invitrogen, Carlsbad, CA) as described previously. Li23-derived ORL8 [20], ORL11 [20], 1B-4RL [Ikeda et al., submitted], and KAH5RL [Ikeda et al., submitted] cells harboring genome-length HCV-RNA were maintained with medium in the presence of G418 (0.3 mg/ml) as described previously. Li23-derived polyclonal sORL8 and sORL11 cells harboring an HCV replicon, which were established by the transfection of ORN/3-5B/QR,KE,SR RNA into the cured OL8 and OL11 cells, respectively, were also cultured with medium in the presence of G418 (0.3 mg/ml) as described previously. Cured cells, from which the HCV-RNA had been eliminated by IFN treatment, were also maintained with medium in the absence of G418 as described previously. […] Therefore, when HCV-RNA is excluded from the cells or when its level is decreased, the cells are killed in the presence of G418.
RL assay was performed as described previously, [24]. Briefly, the cells were plated onto 24-well plates (2×10^4 cells per well) in triplicate and then treated with each reagent at several concentrations for 72 hrs. After treatment, the cells were subjected to luciferase assay using the RL assay system (Promega, Madison, WI). The experiments were performed at least in triplicate. From the assay results, the 50% effective concentration (EC50) of each reagent was determined.
as §2
A general note: In antiviral work, replicon cells carry a viral genome segment that copies itself.

Where [8] appears, read: reagent added along with substrate to OR6 cell lysate.
Where [9] appears, read: reagent added along with substrate to ORL8 cell lysate.

T1 sequence (P27652 whole entry): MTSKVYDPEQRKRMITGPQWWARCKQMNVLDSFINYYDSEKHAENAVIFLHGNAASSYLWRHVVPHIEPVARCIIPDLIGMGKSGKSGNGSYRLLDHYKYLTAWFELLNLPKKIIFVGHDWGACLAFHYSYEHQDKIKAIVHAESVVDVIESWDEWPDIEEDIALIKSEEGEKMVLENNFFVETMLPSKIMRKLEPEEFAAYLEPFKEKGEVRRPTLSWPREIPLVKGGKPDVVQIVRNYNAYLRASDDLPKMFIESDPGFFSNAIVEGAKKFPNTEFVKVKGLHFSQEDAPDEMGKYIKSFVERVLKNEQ

In the case of `C1CCCCCC2(CCCCC1)OOCCCOO2` [N-89, 1,2,6,7-Tetraoxaspiro[7.11]nonadecane], the “direct effect on RL activity” value in data set [1] (setting [8]) and in data set [1] (setting [9]) was “No suppressive effects” in each case. For the same compound, the half-maximal cytotoxic concentration (CC50) at 72 h in data set [2] came to 9000 nM; in data set [6], 560 nM. Also, the “anti-HCV activity, subgenomic HCV-JFH-1 replicon” value in data set [3] is “did not show any anti-HCV activities”. Also, the concentration giving a half-maximal response (EC50) in data set [4] is 45 nM; in data set [7] (Hepatitis C virus, Huh-7, 72 h), under 1000 nM; in data set [7] (72 hrs), 580 nM. Also, in data set [5] (reagent at expected EC90, Fig. 5B (control 3.0)), the “VE 10μM(+) / VE 10μM(-) ratio of RL activity” value is 16.

Consider `OCCCCCCC1COOC2(CCCCCCCCCCC2)OOC1` [N-251, 6-(1,2,6,7-tetraoxaspiro[7.11]nonadec-4-yl)hexan-1-ol], for which the “direct effect on RL activity” value in data set [1] (setting [8]) and in data set [1] (setting [9]) was “No suppressive effects” throughout. Moreover, the CC50 at 72 h was found to be 3000 nM in data set [2] and 1100 nM in data set [6]. The “anti-HCV activity, subgenomic HCV-JFH-1 replicon” value in data set [3] is “did not show any anti-HCV activities”. The EC50 is 59 nM in data set [4]; under 1000 nM in data set [7] (Hepatitis C virus, Huh-7, 72 h); 690 nM in data set [7] (72 hrs). In data set [5] (reagent at expected EC90, Fig. 5D (control 2.3)), the “VE 10μM(+) / VE 10μM(-) ratio of RL activity” value worked out at 13.
